Data reported in patent publication US20070049564A1 (Wyeth, priority 2005, published 2007).
Read-outs that look alike come from different tables or passages of the source.

Experiments:
S. aureus GC 6335 = assay: MIC, broth microdilution; conditions: Staphylococcus aureus
E. coli GC 2231 = assay: MIC, broth microdilution; conditions: Escherichia coli
S. aureus GC 2216 = assay: MIC, broth microdilution; conditions: Staphylococcus aureus
S. typhimurium GC 2172 = assay: MIC, broth microdilution; conditions: Salmonella enterica, TYPHIMURIUM
E. faecium GC 4556 = assay: MIC, broth microdilution; conditions: Enterococcus faecium
S. aureus GC 1079 = assay: MIC, broth microdilution; conditions: Staphylococcus aureus
E. faecalis GC 2267 = assay: MIC, broth microdilution; conditions: Enterococcus faecalis
E. coli GC 3226 = assay: MIC, broth microdilution; conditions: Escherichia coli
Staph. aureus Smith = assay: In vivo activity (oral, iv; ED50) against Staph. aureus Smith in mice
Procedure: Representative examples of compounds of Formula I were tested for the oral efficacy using S. aureus Smith in mice.

E. faecium GC 2243 = assay: MIC, broth microdilution; conditions: Enterococcus faecium
E. coli GC 2272 = assay: MIC, broth microdilution; conditions: Escherichia coli
E. coli GC 2234 = assay: MIC, broth microdilution; conditions: Escherichia coli
S. aureus GC 6466 = assay: MIC, broth microdilution; conditions: Staphylococcus aureus
E. coli GC 2232 = assay: MIC, broth microdilution; conditions: Escherichia coli
S. pneumoniae+ GC 4465 = assay: MIC, broth microdilution; conditions: Streptococcus pneumoniae
S. epidermidis GC 4935 = assay: MIC, broth microdilution; conditions: Staphylococcus epidermidis
S. aureus GC 1131 = assay: MIC, broth microdilution; conditions: Staphylococcus aureus
S. pneumoniae* GC 4465 = assay: MIC, broth microdilution; conditions: Streptococcus pneumoniae
c. albicans GC 3066 = assay: MIC, broth microdilution
S. pyogenes GC 4563 = assay: MIC, broth microdilution; conditions: Streptococcus pyogenes
[1] = read-out: MINIMAL INHIBITORY CONCENTRATION MIC, pre-incubated in Mouse Serum
[2] = read-out: MINIMAL INHIBITORY CONCENTRATION MIC, pre-incubated in Water

CCCN(CC(=O)Nc1cc(N(C)C)c2c(c1O)C(=O)C1=C(O)[C@]3(O)C(=O)C(C(N)=O)=C(O)[C@@H](N(C)C)[C@@H]3C[C@@H]1C2)C(=O)OCOC(=O)c1ccc(C(C)(C)C)cc1 [Example 28, ({[(2-{[(5aR,6aS,7S,10aS)-9-(aminocarbonyl)-4,7-bis(dimethylamino)-1,8,10a,11-tetrahydroxy-10,12-dioxo-5,5a,6,6a,7,10,10a,12-octahydrotetracen-2-yl]amino}-2-oxoethyl)(propyl)amino]carbonyl}oxy)methyl 4-tert-butylbenzoate]
32 µg/mL: MIC (S. aureus GC 2216; GC2216, read-out: MINIMAL INHIBITORY CONCENTRATION MIC, pre-incubated in Water) | MIC (E. faecium GC 4556; GC4556, read-out: MINIMAL INHIBITORY CONCENTRATION MIC, pre-incubated in Water) | MIC (S. epidermidis GC 4935; GC4935, read-out: MINIMAL INHIBITORY CONCENTRATION MIC, pre-incubated in Water) | MIC (S. aureus GC 1131; GC1131, read-out: MINIMAL INHIBITORY CONCENTRATION MIC, pre-incubated in Water)
0.6 mg/kg: ED50 (Staph. aureus Smith; Staphylococcus aureus, in Mus musculus, iv, read-out: ED50 SIV (Staph aureus Smith)) | ED50 (Staph. aureus Smith; iv, read-out: ED50 Staph Smith SIV)
4 µg/mL: MIC (S. aureus GC 6466; GC6466, read-out: MINIMAL INHIBITORY CONCENTRATION MIC, pre-incubated in Water)
2 µg/mL: MIC (S. aureus GC 1079; GC1079, read-out: MINIMAL INHIBITORY CONCENTRATION MIC, pre-incubated in Mouse Serum) | MIC (E. faecalis GC 2267; GC2267, read-out: MINIMAL INHIBITORY CONCENTRATION MIC, pre-incubated in Mouse Serum) | MIC (S. pneumoniae+ GC 4465; [1])
< 0.06 µg/mL: MIC (S. pneumoniae* GC 4465; [1]) | MIC (S. pneumoniae* GC 4465; [2]) | MIC (S. pyogenes GC 4563; GC4563, read-out: MINIMAL INHIBITORY CONCENTRATION MIC, pre-incubated in Mouse Serum) | MIC (S. pyogenes GC 4563; GC4563, read-out: MINIMAL INHIBITORY CONCENTRATION MIC, pre-incubated in Water)
0.25 µg/mL: MIC (E. faecium GC 2243; GC2243, read-out: MINIMAL INHIBITORY CONCENTRATION MIC, pre-incubated in Mouse Serum) | MIC (E. faecium GC 2243; GC2243, read-out: MINIMAL INHIBITORY CONCENTRATION MIC, pre-incubated in Water) | MIC (E. coli GC 2234; GC2234, read-out: MINIMAL INHIBITORY CONCENTRATION MIC, pre-incubated in Mouse Serum)
6.61 mg/kg: ED50 (Staph. aureus Smith; Staphylococcus aureus, in Mus musculus, po, read-out: ED50 SOD (Staph aureus Smith)) | ED50 (Staph. aureus Smith; Staphylococcus aureus, in Mus musculus, po, read-out: ED50 Staph Smith SOD)
>64 UG/ML: MINIMAL INHIBITORY CONCENTRATION MIC (c. albicans GC 3066; pre-incubated in Water)
16 µg/mL: MIC (S. aureus GC 6335; GC6335, read-out: MINIMAL INHIBITORY CONCENTRATION MIC, pre-incubated in Water)
> 64 µg/mL: MIC (E. coli GC 2231; GC2231, read-out: MINIMAL INHIBITORY CONCENTRATION MIC, pre-incubated in Water) | MIC (S. typhimurium GC 2172; [2]) | MIC (E. coli GC 3226; GC3226, read-out: MINIMAL INHIBITORY CONCENTRATION MIC, pre-incubated in Water) | MIC (E. coli GC 2272; GC2272, read-out: MINIMAL INHIBITORY CONCENTRATION MIC, pre-incubated in Water) | MIC (E. coli GC 2234; GC2234, read-out: MINIMAL INHIBITORY CONCENTRATION MIC, pre-incubated in Water) | MIC (E. coli GC 2232; GC2232, read-out: MINIMAL INHIBITORY CONCENTRATION MIC, pre-incubated in Water) | MIC (c. albicans GC 3066; Candida albicans, GC3066, read-out: MINIMAL INHIBITORY CONCENTRATION MIC)
1 µg/mL: MIC (S. aureus GC 6335; GC6335, read-out: MINIMAL INHIBITORY CONCENTRATION MIC, pre-incubated in Mouse Serum) | MIC (E. coli GC 2231; GC2231, read-out: MINIMAL INHIBITORY CONCENTRATION MIC, pre-incubated in Mouse Serum) | MIC (S. epidermidis GC 4935; GC4935, read-out: MINIMAL INHIBITORY CONCENTRATION MIC, pre-incubated in Mouse Serum)
8 µg/mL: MIC (S. typhimurium GC 2172; [1])
0.5 µg/mL: MIC (S. aureus GC 2216; GC2216, read-out: MINIMAL INHIBITORY CONCENTRATION MIC, pre-incubated in Mouse Serum) | MIC (E. faecium GC 4556; GC4556, read-out: MINIMAL INHIBITORY CONCENTRATION MIC, pre-incubated in Mouse Serum) | MIC (E. coli GC 3226; GC3226, read-out: MINIMAL INHIBITORY CONCENTRATION MIC, pre-incubated in Mouse Serum) | MIC (E. coli GC 2272; GC2272, read-out: MINIMAL INHIBITORY CONCENTRATION MIC, pre-incubated in Mouse Serum) | MIC (S. aureus GC 6466; GC6466, read-out: MINIMAL INHIBITORY CONCENTRATION MIC, pre-incubated in Mouse Serum) | MIC (E. coli GC 2232; GC2232, read-out: MINIMAL INHIBITORY CONCENTRATION MIC, pre-incubated in Mouse Serum) | MIC (S. pneumoniae+ GC 4465; [2]) | MIC (S. aureus GC 1131; GC1131, read-out: MINIMAL INHIBITORY CONCENTRATION MIC, pre-incubated in Mouse Serum)
64 µg/mL: MIC (S. aureus GC 1079; GC1079, read-out: MINIMAL INHIBITORY CONCENTRATION MIC, pre-incubated in Water) | MIC (E. faecalis GC 2267; GC2267, read-out: MINIMAL INHIBITORY CONCENTRATION MIC, pre-incubated in Water)
